23 compounds from patent US8796244B2, “Imidazopyridine derivatives as inhibitors of receptor tyrosine kinases” (Astex Therapeutics Ltd, priority 2008, dated 2014) can be followed below.

pIC50: −log10 of the molar value. Where a name gives a salt, the structure may show the parent alone. Read-outs that look alike come from different tables or passages of the source.

Test [1] concerns parental wild-type Ba/F3 cells. The test can be described thus: Ba/F3 (WT) cell proliferation assay (Alamar Blue). Format: cell-based. The following applies: Mus musculus; for inhibition at 10 µM / inhibition at 3 µM: BaF3, read-out: BaF3 WT prolif, % inhibition; for pIC50: BaF3, 72 hours, Alamar Blue, read-out: BaF3 WT prolif; for IC50: BaF3, 72 h, read-out: BaF3 WT prolif (μM). Background: Resazurin is reduced to fluorescent resorufin, in cell work by metabolically active cells.

For test [2], the system named is LP-1 cell line (FGF-1/Heparin induced pERK). Briefly: Cell-based pERK ELISA, LP-1 cells. The following applies: Homo sapiens; for IC50: LP-1, read-out: LP-1 pERK ELISA (μM). A general note: ELISA stands for enzyme-linked immunosorbent assay.

For the compound `Cn1cncc1C#Cc1ccn2c(-c3cccc(NC(=O)NC4CC4)c3)cnc2c1` [Compound 329], the inhibition at 10 µM in test [1] stood at 31%. Moreover, the IC50 in test [2] stood at 0.23 µM.
On to `O=C(NCC(F)(F)F)Nc1cccc(-c2cnc3cc(-c4ccc(NCCO)nn4)ccn23)c1` [Example 67, 1-(3-{7-[6-(2-Hydroxy-ethylamino)-pyridazin-3-yl]-imidazo[1,2-a]pyridin-3-yl}-phenyl)-3-(2,2,2-trifluoro-ethyl)-urea], for which the pIC50 in test [1] is 5.68. Further, the IC50 in test [2] was determined as 0.84 µM.
For the compound `O=C(NCC(F)(F)F)Nc1cccc(-c2cnc3cc(-c4cncnc4)ccn23)c1` [Example 42, 1-[3-(7-Pyrimidin-5-yl-imidazo[1,2-a]pyridin-3-yl)-phenyl]-3-(2,2,2-trifluoro-ethyl)-urea hydrochloride], the figures for the IC50 in test [1] and in test [2] were 1.1 µM and 0.27 µM, respectively.
On to `COc1cc(-c2ccn3c(-c4cccc(NC(=O)NCC(F)(F)F)c4)cnc3c2)ncn1` [Example 183], for which the pIC50 in test [1] is 6.54. Moreover, the IC50 in test [2] was found to be 0.028 µM.
For the compound `Cn1cc(C#Cc2ccn3c(-c4cccc(NC(=O)NCC(F)(F)F)c4)cnc3c2)cn1` [Example 56, 1-{3-[7-(1-Methyl-1H-pyrazol-4-ylethynyl)-imidazo[1,2-a]pyridin-3-yl]-phenyl}-3-(2,2,2-trifluoro-ethyl)-urea formate], the IC50 in test [1] was found to be 4.6 µM; in test [2] it was 0.021 µM.
Turning to `O=C(NCC(F)(F)F)Nc1cccc(-c2cnc3cc(-c4nccnn4)ccn23)c1` [Example 141, 1-[3-(7-[1,2,4]-Triazin-3-yl-imidazo[1,2-a]pyridin-3-yl)-phenyl]-3-(2,2,2-trifluoro-ethyl)-urea], the pIC50 in test [1] is 7.38. For the same compound, the IC50 in test [2] stood at 0.11 µM.
Regarding `O=C(NCC(F)(F)F)Nc1cccc(-c2cnc3cc(-c4ncccn4)ccn23)c1` [Example 114, 1-{3-[7-(Pyrimidin-2-yl)-imidazo[1,2-a]pyridin-3-yl]-phenyl}-3-(2,2,2-trifluoro-ethyl)-urea hydrochloride], the IC50 in test [1] stood at 0.65 µM; in test [2], 0.047 µM.
With `Cn1ccc(C#Cc2ccn3c(-c4cccc(NC(=O)NCC(F)(F)F)c4)cnc3c2)n1` [Example 86, 1-{3-[7-(1-Methyl-1H-pyrazol-3-ylethynyl)-imidazo[1,2-a]pyridin-3-yl]-phenyl}-3-(2,2,2-trifluoro-ethyl)-urea formate], the IC50 in test [1] was 1.9 µM; in test [2], 0.04 µM.
Regarding `O=C(NCC(F)(F)F)Nc1cncc(-c2cnc3cc(-c4cnn(C5CCNCC5)c4)ccn23)c1` [Example 152, 1-{5-[7-(1-Piperidin-4-yl-1H-pyrazol-4-yl)-imidazo[1,2-a]pyridin-3-yl]-pyridin-3-yl}-3-(2,2,2-trifluoro-ethyl)-urea], in test [1], the inhibition at 10 µM is 10%. In test [2], the IC50 is 3.3 µM.
For the compound `Nc1ccnc(-c2ccn3c(-c4cccc(NC(=O)NCC(F)(F)F)c4)cnc3c2)c1` [Example 108, 1-{3-[7-(4-Amino-pyridin-2-yl)-imidazo[1,2-a]pyridin-3-yl]-phenyl}-3-(2,2,2-trifluoro-ethyl)-urea diformate], the inhibition at 10 µM in test [1] stood at 46%. The IC50 in test [2] is 1.2 µM.
Turning to `O=C(NCC(F)(F)F)Nc1cccc(-c2cnc3cc(-c4cnccn4)ccn23)c1` [Example 30, 1-[3-(7-Pyrazin-2-ylimidazo[1,2-a]pyridin-3-yl)phenyl]-3-(2,2,2-trifluoroethyl)urea], the pIC50 in test [1] was 6.89. For the same compound, the IC50 in test [2] was 0.045 µM.
Consider `CC(C)(C(=O)O)n1cc(-c2ccn3c(-c4cccc(NC(=O)NCC(F)(F)F)c4)cnc3c2)cn1` [Example 5, 2-Methyl-2-[4-(3-{3-[3-(2,2,2-trifluoroethyl)ureido]phenyl}imidazo [1,2-a]pyridin-7-yl)pyrazol-1-yl]propionic acid], for which the inhibition at 10 µM in test [1] stood at 0%. Further, in test [2] (LP-1, read-out: LP-1 pERK ELISA, % inhibition), the inhibition at 1 µM is 45%.
Turning to `NC(=O)c1sccc1-c1ccn2c(-c3cccc(NC(=O)NCC(F)(F)F)c3)cnc2c1` [Example 43, 3-(3-{3-[3-(2,2,2-Trifluoroethyl)-ureido]-phenyl}-imidazo[1,2-a]pyridin-7-yl)-thiophene-2-carboxylic acid amide hydrochloride], in test [1], the inhibition at 10 µM was found to be 0%. In addition, the IC50 in test [2] was determined as 0.35 µM.
With `CN(C)CC#Cc1ccn2c(-c3cccc(NC(=O)NCC(F)(F)F)c3)cnc2c1` [Example 14, 1-{3-[7-(3-Dimethylaminoprop-1-ynyl)imidazo[1,2-a]pyridin-3-yl]phenyl}-3-(2,2,2-trifluoroethyl)urea], in test [1], the pIC50 is 5.85. In addition, in test [2], the IC50 came to 0.1 µM.
For `O=C(NCC(F)(F)F)Nc1cccc(-c2cnc3cc(-c4cccnc4)ccn23)c1` [Example 78, 1-[3-(7-Pyridin-3-yl-imidazo[1,2-a]pyridin-3-yl)-phenyl]-3-(2,2,2-trifluoro-ethyl)-urea], the pIC50 in test [1] was 6.82. Moreover, in test [2], the IC50 worked out at 0.017 µM.
For `O=C(NCC(F)(F)F)Nc1cccc(-c2cnc3cc(-c4nnc(C5CCCO5)s4)ccn23)c1` (stereo not drawn) [Example 1, 1-(3-{7-[5-(Tetrahydrofuran-2-yl)-[1,3,4]thiadiazol-2-yl]imidazo[1,2-a]pyridin-3-yl}-phenyl)-3-(2,2,2-trifluoroethyl)urea], the pIC50 in test [1] was 6.04. For the same compound, the IC50 in test [2] came to 0.0074 µM.
Regarding `CCNC(=O)Nc1cccc(-c2cnc3cc(-c4ncc(F)c(N)n4)ccn23)c1` [Example 163], in test [1], the inhibition at 3 µM amounted to 38% and the inhibition at 10 µM is 11%. For the same compound, the IC50 in test [2] turned out to be 0.22 µM.
For the compound `COc1ccc(-c2ccn3c(-c4cccc(NC(=O)NCC(F)(F)F)c4)cnc3c2)nn1` [Example 51, 1-{3-[7-(6-Methoxy-pyridazin-3-yl)-1,7-imidazo[1,2-a]pyridin-3-yl]-phenyl}-3-(2,2,2-trifluoro-ethyl)-urea], in test [1], the inhibition at 10 µM came to 10%. Also, the IC50 in test [2] turned out to be 0.015 µM.
In the case of `Cc1cnnc(-c2ccn3c(-c4cccc(NC(=O)NCC(F)(F)F)c4)cnc3c2)c1` [Example 137, 1-{3-[7-(5-Methyl-pyridazin-3-yl)-imidazo[1,2-a]pyridin-3-yl]-phenyl}-3-(2,2,2-trifluoro-ethyl)-urea], in test [1], the inhibition at 10 µM came out at 23%. The IC50 in test [2] was determined as 0.034 µM.
As to `COc1cnc(-c2ccn3c(-c4cccc(NC(=O)NCC(F)(F)F)c4)cnc3c2)nc1N` [Example 173], in test [1], the inhibition at 3 µM turned out to be 29.5% and the inhibition at 10 µM came out at 22%. The IC50 in test [2] was 0.052 µM.
Regarding `O=C(NCC(F)(F)F)Nc1cccc(-c2cnc3cc(-c4ccccn4)ccn23)c1` [Example 3, 1-[3-(7-Pyridin-2-ylimidazo[1,2-a]pyridinyl)phenyl]-3-(2,2,2-trifluoroethyl)urea], the pIC50 in test [1] was 6.80. For the same compound, the IC50 in test [2] turned out to be 0.0088 µM.
Take `O=C(NCC(F)(F)F)Nc1cccc(-c2cnc3cc(-c4ccc(CCO)cc4)ccn23)c1` [Example 111, 1-(3-{7-[4-(2-Hydroxy-ethyl)-phenyl]-imidazo[1,2-a]pyridin-yl}-phenyl)-3-(2,2,2-trifluoro-ethyl)-urea formate]: the figures for the IC50 in test [1] and in test [2] were 0.18 µM and 0.016 µM, respectively.
Consider `O=C(NCC(F)(F)F)Nc1cccc(-c2cnc3cc(-c4nc5c(s4)CCC5)ccn23)c1` [Example 8, 1-{3-[7-(5,6-Dihydro-4H-cyclopentathiazol-2-yl)imidazo[1,2-a]pyridin-3-yl]-phenyl}-3-(2,2,2-trifluoroethyl)urea], for which the pIC50 in test [1] is 6.35. Further, the IC50 in test [2] is 0.012 µM.

As a reminder, the inhibition is the drop in the measured response relative to a control, in per cent.
